Measured values as given in patent publication US12486302B2, “Somatostatin receptor antagonist compounds and methods of using the same” (CDRD VENTURES INC., priority 2016, dated 2025).
Where a SMILES comes first, the peptide text is derived from it. Bridges are numbered along the chain shown (N, C = ends). Triazole bridges read from a SMILES are 1,4-linked. [ ]: non-standard residue; d: D form. The star is where a group is joined. ξ: configuration not given here. dPhe(4-CONH2) = NC(=O)c1ccc(C[C@@H](N)C(=O)O)cc1; Phe(4-Cl) = N[C@@H](Cc1ccc(Cl)cc1)C(=O)O; Dap(N3) = [N-]=[N+]=NC[C@H](N)C(=O)O; ξPhe(4-Cl) = NC(Cc1ccc(Cl)cc1)C(=O)O; Butanoyl(3,3-Me2) = CC(C)(C)CC(=O)*; NMeY = CN[C@@H](Cc1ccc(O)cc1)C(=O)O; Lys(Me) = CNCCCC[C@H](N)C(=O)O; X4 = O=C(CS(=O)(=O)c1ccccc1)*; Picolinoyl = O=C(c1ccccn1)*; ξY = NC(Cc1ccc(O)cc1)C(=O)O; MeOSuc = COC(=O)CCC(=O)*; Pra = C#CC[C@H](N)C(=O)O; dDap = NC[C@@H](N)C(=O)O; ξF = NC(Cc1ccccc1)C(=O)O; Bz = O=C(c1ccccc1)*

Molecular target: somatostatin type 2 (SSTR2) receptors (Homo sapiens, UniProt P30874)
Assay: PathHunter β-Arrestin assay, antagonist mode, SSTR2
Assay type: cell-based
Conditions: agonist challenge at EC80
Procedure: The PathHunter® β-Arrestin assay monitors the activation of a GPCR in a homogenous, non-imaging assay format using a technology developed by DiscoveRx called Enzyme Fragment Complementation (EFC) with β-galactosidase (β-Gal) as the functional reporter. […] EA is fused to β-Arrestin and […] is fused to the GPCR of interest. When the GPCR is activated and β-Arrestin is recruited to the receptor, ED and EA complementation occurs, restoring β-Gal activity which is measured using chemiluminescent PathHunter® Detection Reagents. For antagonist determination, cells were pre-incubated with the compounds followed by agonist challenge at the EC80 concentration. Data was normalized to the maximal and minimal response observed in the presence of EC80 ligand and vehicle. Compound activity was analyzed using CBIS data analysis suite ChemInnovation, CA). Percentage inhibition was calculated using the following formula: % Inhibition=100%×(1−(mean signal of test sample-mean signal of vehicle control)/(mean signal of EC80 control-mean signal of vehicle control)). Percentage inhibition was calculated at 10 concentrations in steps on a Log 3 scale ranging from […] to 5e-5 μM. The results were plotted for IC50 calculation.

Sequence of somatostatin type 2 (SSTR2) receptors (P30874 whole entry): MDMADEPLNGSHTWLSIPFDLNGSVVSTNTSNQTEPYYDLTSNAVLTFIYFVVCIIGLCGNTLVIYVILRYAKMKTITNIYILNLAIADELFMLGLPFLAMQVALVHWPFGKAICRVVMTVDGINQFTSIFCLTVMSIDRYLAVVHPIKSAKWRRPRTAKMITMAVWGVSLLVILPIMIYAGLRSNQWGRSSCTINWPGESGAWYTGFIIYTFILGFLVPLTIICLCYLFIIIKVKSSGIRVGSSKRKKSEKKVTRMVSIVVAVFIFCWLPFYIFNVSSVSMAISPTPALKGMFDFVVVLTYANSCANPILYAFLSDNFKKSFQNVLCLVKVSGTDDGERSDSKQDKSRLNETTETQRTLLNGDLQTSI

SMILES	IC50 [nM]
CNCCCC[C@@H]1NC(=O)[C@@H](Cc2ccc(C(N)=O)cc2)NC(=O)[C@H](Cc2ccc(O)cc2)NC(=O)[C@H](NC(=O)[C@H](Cc2ccc(Cl)cc2)NC(=O)CS(=O)(=O)c2ccccc2)CSSC[C@@H](C(=O)N[C@H](Cc2ccc(O)cc2)C(N)=O)NC(=O)[C@H]([C@@H](C)O)NC1=O [Compound 51, PhSO2CH2(CO)-Cpa-cyclo[D-Cys-Tyr-D-Phe(4-carbamoyl)-Lys(N^ε-Me)-Thr-Cys]-D-Tyr-NH2] (X4-[Phe(4-Cl)][dC]Y[dPhe(4-CONH2)][Lys(Me)]TC[dY]-NH2; disulfide 2-7)	1.45
CNCCCC[C@@H]1NC(=O)[C@@H](Cc2ccc(C(N)=O)cc2)NC(=O)[C@H](Cc2ccc(O)cc2)NC(=O)[C@H](NC(=O)[C@@H](N)Cc2ccc(Cl)cc2)CNC(=O)C[C@@H](C(=O)N[C@H](Cc2ccc(O)cc2)C(N)=O)NC(=O)[C@H]([C@@H](C)O)NC1=O [Compound 71, H-Cpa-cyclo [DDap-Tyr- DPhe(4-CONH2)- Lys(Me)-Thr- Asp]-DTyr-NH2] (H-[Phe(4-Cl)][dDap]Y[dPhe(4-CONH2)][Lys(Me)]TD[dY]-NH2; lactam 2-7)	13.3
CNCCCC[C@@H]1NC(=O)[C@@H](Cc2ccc(C(N)=O)cc2)NC(=O)[C@H](Cc2ccc(O)cc2)NC(=O)[C@H](NC(=O)[C@H](Cc2ccc(Cl)cc2)NC(=O)CC(C)(C)C)CSSC[C@@H](C(=O)N[C@H](Cc2ccc(O)cc2)C(N)=O)NC(=O)[C@H]([C@@H](C)O)NC1=O [Compound 52, t-BuCH2(CO)-Cpa-cyclo[D-Cys-Tyr-D-Phe(4-carbamoyl)-Lys(N^ε-Me)-Thr-Cys]-D-Tyr-NH2] ({Butanoyl(3,3-Me2)}-[Phe(4-Cl)][dC]Y[dPhe(4-CONH2)][Lys(Me)]TC[dY]-NH2; disulfide 2-7)	1.73
CNCCCC[C@@H]1NC(=O)[C@@H](Cc2ccc(C(N)=O)cc2)NC(=O)[C@H](Cc2ccc(O)cc2)NC(=O)[C@H](NC(=O)[C@H](Cc2ccc(Cl)cc2)NC(=O)CNC(=O)c2ccccc2)CSSC[C@@H](C(=O)N[C@H](Cc2ccc(O)cc2)C(N)=O)NC(=O)[C@H]([C@@H](C)O)NC1=O [Compound 50, Ph(CO)NHCH2(CO)-Cpa-cyclo[D-Cys-Tyr-D-Phe(4-carbamoyl)-Lys(N^ε-Me)-Thr-Cys]-D-Tyr-NH2] (Bz-G[Phe(4-Cl)][dC]Y[dPhe(4-CONH2)][Lys(Me)]TC[dY]-NH2; disulfide 3-8)	1.11
C[C@@H](O)[C@@H]1NC(=O)[C@H](CCCCN)NC(=O)[C@@H](Cc2ccc(C(N)=O)cc2)NC(=O)[C@H](Cc2ccccc2)NC(=O)[C@H](NC(=O)[C@@H](N)Cc2ccc(Cl)cc2)CSSC[C@@H](C(=O)NC(Cc2ccc(O)cc2)C(N)=O)NC1=O (stereo partly drawn) [Compound 35, H-Cpa-cyclo[DCys- Phe-D-(4- carbamoyl)Phe-Lys- Thr-Cys]-DTyr-NH2] (H-[Phe(4-Cl)][dC]F[dPhe(4-CONH2)]KTC[ξY]-NH2; disulfide 2-7)	35.9
C[C@@H](O)[C@@H]1NC(=O)[C@H](CCCCN)NC(=O)[C@@H](Cc2ccc(C(N)=O)cc2)NC(=O)[C@H](Cc2ccc(O)cc2)NC(=O)[C@@H](NC(=O)[C@@H](N)Cc2ccc(Cl)cc2)CC=CC[C@@H](C(=O)N[C@H](Cc2ccc(O)cc2)C(N)=O)NC1=O (stereo in doubt) [Compound 68]	> 1000
C[C@@H](O)[C@@H]1NC(=O)[C@H](CCCNC(=N)N)NC(=O)[C@@H](Cc2ccc(C(N)=O)cc2)NC(=O)[C@H](Cc2ccc(O)cc2)NC(=O)[C@H](NC(=O)[C@@H](N)Cc2ccc(Cl)cc2)CSSC[C@@H](C(=O)NC(Cc2ccc(O)cc2)C(N)=O)NC1=O (stereo partly drawn) [Compound 29, H-Cpa-cyclo[DCys- Tyr-D-(4- carbamoyl)Phe-Arg- Thr-Cys]-DTyr-NH2] (H-[Phe(4-Cl)][dC]Y[dPhe(4-CONH2)]RTC[ξY]-NH2; disulfide 2-7)	398
CC(O)[C@@H]1NC(=O)[C@H](CCCCN)NC(=O)[C@@H](Cc2ccc(C(N)=O)cc2)NC(=O)[C@H](Cc2ccc(O)cc2)NC(=O)[C@H](NC(=O)[C@@H](N)Cc2ccc(Cl)cc2)CNC(=O)SC[C@@H](C(=O)N[C@H](Cc2ccc(O)cc2)C(N)=O)NC1=O (stereo in doubt) [Compound 61, H-Cpa-cyclo[Dap- Tyr-DPhe (4-CONH2)- Lys-Thr-Cys]- DTyr-NH2]	> 1000
C[C@@H](O)[C@@H]1NC(=O)[C@H](CCCCN)NC(=O)[C@@H](Cc2ccc(C(N)=O)cc2)NC(=O)[C@H](Cc2ccc(Cl)cc2)NC(=O)[C@H](NC(=O)[C@@H](N)Cc2ccc(Cl)cc2)CSSC[C@@H](C(=O)NC(Cc2ccc(Cl)cc2)C(N)=O)NC1=O (stereo partly drawn) [Compound 43, H-Cpa-cyclo[DCys- 4-Cl-Phe-D-(4- carbamoyl)Phe-Lys- Thr-Cys]-4-Cl-D- Phe-NH2] (H-[Phe(4-Cl)][dC][Phe(4-Cl)][dPhe(4-CONH2)]KTC[ξPhe(4-Cl)]-NH2; disulfide 2-7)	25.6
C[C@@H](O)[C@@H]1NC(=O)[C@H](CCCCN)NC(=O)[C@@H](Cc2ccc(C(N)=O)cc2)NC(=O)[C@H](Cc2ccc(O)cc2)NC(=O)[C@@H](NC(=O)[C@@H](N)Cc2ccc(Cl)cc2)Cc2cn(nn2)C[C@@H](C(=O)N[C@H](Cc2ccc(O)cc2)C(N)=O)NC1=O [Compound 65] (H-[Phe(4-Cl)][Pra]Y[dPhe(4-CONH2)]KT[Dap(N3)][dY]-NH2; triazole 2-7)	688
C[C@@H](O)[C@@H]1NC(=O)[C@H](CCCCN)NC(=O)[C@@H](Cc2ccc(C(N)=O)cc2)NC(=O)[C@H](Cc2ccc(O)cc2)N(C)C(=O)[C@H](NC(=O)[C@@H](N)Cc2ccc(Cl)cc2)CSSC[C@@H](C(=O)N[C@H](Cc2ccc(O)cc2)C(N)=O)NC1=O [Compound 74, H-Cpa-[DCys- NMeTyr-DPhe (4-carbamoyl)- Lys-Thr-Cys]- DTyr-NH2] (H-[Phe(4-Cl)][dC][NMeY][dPhe(4-CONH2)]KTC[dY]-NH2; disulfide 2-7)	159
C[C@@H](O)[C@@H]1NC(=O)[C@H](CCCCN)NC(=O)[C@@H](Cc2ccc(C(N)=O)cc2)NC(=O)[C@H](Cc2ccc(O)cc2)NC(=O)[C@H](NC(=O)[C@@H](N)Cc2ccc(Cl)cc2)CNC(=O)C[C@@H](C(=O)N[C@H](Cc2ccc(O)cc2)C(N)=O)NC1=O [Compound 69, H-Cpa-cyclo [DDap-Tyr- DPhe(4-CONH2)- Lys-Thr-Asp]- DTyr-NH2] (H-[Phe(4-Cl)][dDap]Y[dPhe(4-CONH2)]KTD[dY]-NH2; lactam 2-7)	> 1000
COc1ccc(CC(NC(=O)[C@@H]2CSSC[C@@H](NC(=O)[C@@H](N)Cc3ccc(Cl)cc3)C(=O)N[C@@H](Cc3ccc(OC)cc3)C(=O)N[C@H](Cc3ccc(C(N)=O)cc3)C(=O)N[C@@H](CCCCN)C(=O)N[C@@H]([C@@H](C)O)C(=O)N2)C(N)=O)cc1 (stereo partly drawn) [Compound 45, H-Cpa-cyclo[DCys- 4-OMe-Phe-D-(4- carbamoyl)Phe-Lys- Thr-Cys]-4-OMe-D- Phe-NH2] (H-[Phe(4-Cl)][dC]Y(Me)[dPhe(4-CONH2)]KTC[ξY](Me)-NH2; disulfide 2-7)	14.6
C[C@@H](O)[C@@H]1NC(=O)[C@H](CCCCN)NC(=O)[C@@H](Cc2ccc(C(N)=O)cc2)NC(=O)[C@H](Cc2ccc(O)cc2)NC(=O)[C@H](NC(=O)[C@@H](N)Cc2ccc(Cl)cc2)CC=CC[C@@H](C(=O)N[C@H](Cc2ccc(O)cc2)C(N)=O)NC1=O [Compound 67]	> 1000
C[C@@H](O)[C@@H]1NC(=O)[C@H](CCCCN)NC(=O)[C@@H](Cc2ccc(C(N)=O)cc2)NC(=O)[C@H](Cc2ccccc2)NC(=O)[C@H](NC(=O)[C@@H](N)Cc2ccc(Cl)cc2)CSSC[C@@H](C(=O)NC(Cc2ccccc2)C(N)=O)NC1=O (stereo partly drawn) [Compound 41, H-Cpa-cyclo[DCys- Phe-D-(4- carbamoyl)Phe-Lys- Thr-Cys]-DPhe-NH2] (H-[Phe(4-Cl)][dC]F[dPhe(4-CONH2)]KTC[ξF]-NH2; disulfide 2-7)	24.4
CNCCCC[C@@H]1NC(=O)[C@@H](Cc2ccc(C(N)=O)cc2)NC(=O)[C@H](Cc2ccc(O)cc2)NC(=O)[C@H](NC(=O)[C@H](Cc2ccc(Cl)cc2)NC(=O)c2ccccn2)CSSC[C@@H](C(=O)N[C@H](Cc2ccc(O)cc2)C(N)=O)NC(=O)[C@H]([C@@H](C)O)NC1=O [Compound 53, 2-Pyridyl(CO)-Cpa-cyclo[D-Cys-Tyr-D-Phe(4-carbamoyl)-Lys(N^ε-Me)-Thr-Cys]-D-Tyr-NH2] (Picolinoyl-[Phe(4-Cl)][dC]Y[dPhe(4-CONH2)][Lys(Me)]TC[dY]-NH2; disulfide 2-7)	4.28
CC(=O)NCCCC[C@@H]1NC(=O)[C@@H](Cc2ccc(C(N)=O)cc2)NC(=O)[C@H](Cc2ccc(O)cc2)NC(=O)[C@H](NC(=O)[C@@H](N)Cc2ccc(Cl)cc2)CSSC[C@@H](C(=O)NC(Cc2ccc(O)cc2)C(N)=O)NC(=O)[C@H]([C@@H](C)O)NC1=O (stereo partly drawn) [Compound 26, H-Cpa-cyclo[DCys- Tyr-D-(4- carbamoyl)Phe-(N- Acetyl)Lys-Thr-Cys]- DTyr-NH2] (H-[Phe(4-Cl)][dC]Y[dPhe(4-CONH2)]K(Ac)TC[ξY]-NH2; disulfide 2-7)	> 1000
CNCCCC[C@@H]1NC(=O)[C@@H](Cc2ccc(C(N)=O)cc2)NC(=O)[C@H](Cc2ccc(O)cc2)NC(=O)[C@H](NC(=O)[C@H](Cc2ccc(Cl)cc2)NC(=O)CCC(=O)OC)CSSC[C@@H](C(=O)N[C@H](Cc2ccc(O)cc2)C(N)=O)NC(=O)[C@H]([C@@H](C)O)NC1=O [Compound 58, CH3O2C(CH2)2(CO)-Cpa-cyclo[D-Cys-Tyr-D-Phe(4-carbamoyl)-Lys(N^ε-Me)-Thr-Cys]-D-Tyr-NH2] (MeOSuc-[Phe(4-Cl)][dC]Y[dPhe(4-CONH2)][Lys(Me)]TC[dY]-NH2; disulfide 2-7)	2.36
